Source: ChEMBL document CHEMBL5727147, “Pharmaceutical compounds” (2018)

Each compound was assayed against T1, Serine/threonine-protein kinase Chk1 (Homo sapiens, UniProt O14757) (assay: Kinase Inhibiting Activity Assay: Chk-1 Kinase Inhibiting ActivityThe compounds of the invention were tested for activity against Chk-1 kinase using the materials and protocols set out below.Reaction Buffer:Base Reaction buffer: 20 mM Hepes (pH 7.5), 10 mM MgCl2, 1 mM EGTA, 0.02% Brij35, 0.02 mg/ml BSA, 0.1 mM Na3VO4, 2 mM DTT, 1% DMSO*Required cofactors are added individually to each kinase reactionReaction Procedure:(i) Prepare indicated substrate in freshly prepared Base Reaction Buffer(ii) Deliver any required cofactors to the substrate solution above(iii) Deliver indicated kinase into the substrate solution and gently mix(iv) Deliver compounds in DMSO into the kinase reaction mixture(v) Deliver 33P-ATP (specific activity 0.01 μCi/μl final) into the reaction mixture to initiate the reaction.(vi) Incubate kinase reaction for 120 minutes at room temperature(vii) Reactions are spotted onto P81 ion exchange paper (Whatman #3698-915)(viii) Wash filters extensively in 0.1% phosphoric acid.(ix) Dry filters and measure counts in scintillation counterKinase Information:CHK-1 Genbank Accession # AF016582Recombinant full length construct, N-terminal GST tagged, purified from insect cells.No special measures were taken to activate this kinase.Final concentration in assay=0.5 nMSubstrate: CHKtidePeptide sequence: [[…]]Final concentration in assay=20 μM).
T1 sequence (O14757 whole entry): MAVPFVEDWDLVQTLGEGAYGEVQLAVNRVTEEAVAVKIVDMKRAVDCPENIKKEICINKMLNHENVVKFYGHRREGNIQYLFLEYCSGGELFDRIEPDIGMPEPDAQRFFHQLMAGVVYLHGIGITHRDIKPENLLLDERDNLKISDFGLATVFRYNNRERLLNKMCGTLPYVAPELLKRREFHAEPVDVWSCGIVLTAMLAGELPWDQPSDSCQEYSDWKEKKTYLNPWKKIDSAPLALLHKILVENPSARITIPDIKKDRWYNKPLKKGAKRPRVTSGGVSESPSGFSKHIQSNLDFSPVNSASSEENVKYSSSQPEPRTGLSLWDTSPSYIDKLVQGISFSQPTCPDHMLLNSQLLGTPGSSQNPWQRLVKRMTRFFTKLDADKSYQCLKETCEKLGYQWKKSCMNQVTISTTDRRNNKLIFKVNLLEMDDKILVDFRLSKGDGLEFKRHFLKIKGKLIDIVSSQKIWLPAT

Compound | IC50 [nM]
COc1cc(CNC(=O)C2CC2)ccc1-c1cc(Nc2cnc(C#N)cn2)n[nH]1 | 0.59
COc1cc(OCc2cocn2)ccc1-c1cc(Nc2cnc(C#N)cn2)n[nH]1 | < 1
COc1cc(C2CCCCN2C)ccc1-c1cc(Nc2cnc(C#N)cn2)n[nH]1 (stereo not drawn) | 0.51
